Assay [1] deals with T1, HA-OGR1 (GPR68) (Homo sapiens, UniProt Q15743).
T1 construct: HA; expressed in transfected cells
In words: Ca2+ mobilization assay (Fluo-4). The settings on record: GPR68, data from resynthesized peptide, mean, SEM and n; for Emax: read-out: Emax, Ca2+ mobilization (% iono); for EC50: read-out: pEC50, Ca2+ mobilization (% iono) (converted). The assay is classed as cell-based. The method, then:
Peptide-dependent Ca^2+ mobilization responses were measured in HEK293 stable cell lines (HA-OGR1 (GPR68) and vector pcDNA) ([Saxena et al., 2012]) that were seeded in 96-well plates (1 × 10^5 cells/well) and cultured at 37°C with 5% CO2 to near confluence in DMEM with 10% FBS (Corning). Six hours prior to assay, medium was changed to pH 8.0 or pH 7.4 HAM’s F12 Nutrient Mixture (GIBCO) without FBS and transferred to a 37°C incubator without CO2. One hour prior to stimulation, cells were incubated in pH 8.0 or pH 7.4 HBSS with Ca^2+ and Mg^2+ (GIBCO), supplemented with 15 mM HEPES, 2 μM Fluo-4 AM (Invitrogen) and 1.5 mM probenecid ([…] to prevent Fluo-4 efflux) as described previously ([Pera et al., 2018]). Indicated peptides were pipetted using an automated system and emission signal was recorded at 525 nm after excitation at 485 nm using Flex Station III (Molecular Devices). Ca^2+ mobilization responses were determined by subtracting basal fluorescence from the net peak of agonist-induced fluorescence. Ionomycin (1 μM) was used to calculate the maximum Ca^2+ signal to normalize peptide-mediated responses.
On the technique in general: Calcium assays in cells follow changes in intracellular calcium, usually with a dye or a luminescent sensor.

For assay [2], the system named is GPR68. Kind of assay: β-arrestin recruitment (Tango). The assay is classed as cell-based, human. The method, then: The peptide library was additionally screened against 120 GPCR targets in parallel, including all available orphan receptors and 27 known class A peptide receptors using the Tango assay platform ([Kroeze et al., 2015]). Briefly, HTLA cells (a HEK293 cell line stably expressing a tTA-dependent luciferase reporter and a β-arrestin2-TEV fusion gene) were plated 10,000 cells/well in poly-L-lysine–coated clear-bottom white 384-well plates in DMEM supplemented with 10% FBS, 100 U/ml penicillin and 100 μg/ml streptomycin, 2 μg/ml puromycin and 100 μg/ml hygromycin B. 24 hr later, cells were transfected with Tango GPCR constructs using the calcium phosphate method ([Jordan et al., 1996]). The next day, culture medium was changed to DMEM + 1% dFBS and 10 μM peptides were added for overnight stimulation. Bright-Glo solution (Promega) was incubated for 15–20 min at room temperature, and luminescence was counted using a Trilux luminescence counter (Wallac).
For subsequent peptide validation experiments using Tango assays, HTLA cells were transiently transfected in 10 cm dishes with the receptor of interest using polyethylenimine (PEI) ([Longo et al., 2013]). […] Assays were performed as described above, with luminescence measured using an EnSpire 2300 Multimode plate reader (PerkinElmer). Luminescence counts were exported into Excel and were analyzed using GraphPad Prism 7.
A general note: Recruitment of arrestin is a read-out of receptor activation apart from second messengers.

The source of these data is article PMC6838683, “Discovery of Human Signaling Systems: Pairing Peptides to G Protein-Coupled Receptors” (Cell, 2019).

SMILES strings stand for the structures. Positions of bridges follow the written chain, without caps; N, C: chain ends. Residues, ends and D or L forms follow the SMILES beside them.

T1 sequence (Q15743 whole entry): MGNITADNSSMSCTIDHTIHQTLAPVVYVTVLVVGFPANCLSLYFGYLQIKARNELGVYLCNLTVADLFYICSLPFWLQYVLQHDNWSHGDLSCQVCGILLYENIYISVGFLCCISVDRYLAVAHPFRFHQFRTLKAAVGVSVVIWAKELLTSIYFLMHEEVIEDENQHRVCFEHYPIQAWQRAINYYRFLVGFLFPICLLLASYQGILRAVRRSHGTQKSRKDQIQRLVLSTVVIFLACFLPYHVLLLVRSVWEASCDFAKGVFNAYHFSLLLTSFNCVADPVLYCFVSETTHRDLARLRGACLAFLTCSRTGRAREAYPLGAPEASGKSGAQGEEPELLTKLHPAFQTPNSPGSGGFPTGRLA

A word on the Emax: it is the greatest response seen or fitted, relative to the assay's reference. As for `CC[C@H](C)[C@H](NC(=O)[C@H](CCCNC(=N)N)NC(=O)[C@H](C)NC(=O)CNC(=O)[C@H](CCCCN)NC(=O)[C@H](CCCNC(=N)N)NC(=O)[C@@H](NC(=O)[C@H](C)NC(=O)[C@@H]1CSSC[C@H](NC(=O)[C@H](CCSC)NC(=O)[C@@H]2CCCN2C(=O)[C@@H](NC(=O)[C@H](CCC(N)=O)NC(=O)CNC(=O)[C@@H](N)Cc2ccc(O)cc2)C(C)C)C(=O)N[C@@H](CC(=O)O)C(=O)N[C@@H](C)C(=O)NCC(=O)N[C@@H](CCC(=O)O)C(=O)N[C@@H](CCC(N)=O)C(=O)N1)C(C)C)C(N)=O` [CART(42-89)_(9-28)] (H-YGQVPMCDAGEQCAVRKGARI-NH2; disulfide 7-13; N-terminus assumed), in assay [1], the Emax was 79.3% and the EC50 was 3310 nM. In addition, in assay [2], the “Comment on response, Tango (fold over basal); Emax and pEC50 n.d.” value is on record as “No response”.
On to `CC(C)C[C@H](NC(=O)[C@@H]1CCCN1C(=O)[C@H](Cc1ccccc1)NC(=O)[C@H](C)NC(=O)[C@H](CCC(=O)O)NC(=O)[C@H](C)NC(=O)[C@H](CO)NC(=O)[C@H](CCC(=O)O)NC(=O)[C@H](CC(N)=O)NC(=O)[C@H](CCC(=O)O)NC(=O)[C@H](C)NC(=O)[C@@H](NC(=O)[C@H](CC(N)=O)NC(=O)[C@@H]1CCCN1C(=O)[C@H](Cc1ccc(O)cc1)NC(=O)[C@@H](NC(=O)[C@H](CCCCN)NC(=O)[C@@H](NC(=O)[C@@H]1CCCN1C(=O)[C@H](CCCNC(=N)N)NC(=O)[C@@H](N)CCCNC(=N)N)C(C)C)C(C)C)C(C)C)C(=O)N[C@@H](CCC(=O)O)C(=O)N[C@@H](Cc1ccccc1)C(=O)O` [Corticotropin_(17-40)] (H-RRPVKVYPNVAENESAEAFPLEF-OH; N-terminus and C-terminus assumed), for which, in assay [1], the Emax came out at 63.3% and the EC50 is 1820 nM. For the same compound, the “Comment on response, Tango (fold over basal); Emax and pEC50 n.d.” value in assay [2] is reported as “No response”.
